Several values for one entry are separate records, joined by “and”; a condition that tells them apart may be missing. Equal entries are not always repeated.
Test: Effect of co-administered extracts on the pharmacokinetics of theophylline in rats
Experimental: Carpediol spissum (Batch No Ex 20404); Swedish Herbal Institute, Gothenburg, Sweden) as described above in Example 1. […] It was analyzed for purity by HPLC, Capillary electrophoresis, ^1H-NMR and ^13C-NMR. • (e) Internal standard: Methyl-4-hydroxybenzoate 99%, F.W. 152.15 Aldrich. • (f) Water, demonized and distilled. • (g) Water for High Performance Capillary Electrophoresis (HPCE), HEWLETT-PACKARD. • (h) Buffer pH=9.3 for HPCE (50 mM Borate). • (i) 0.1N Sodium Hydroxide Solution for HPCE. • (j) Chloroform HPLC grade. • (k) 2-Propanol spectrophotometric grade. • (l) Methanol Chromasorv.
Animals—In this study, 144 time-mated male Wistar rats were used. Breeder: Institute of Fine Organic Chemistry of the National Academy of Science, Yerevan. The initial weight of the animals: 130-170 g (mean weight 149.93±12.4 g). […] All animals were clinically examined upon arrival and any animal showing signs of abnormality or disease was excluded. Animals considered unsuitable for the study were replaced before the start. No animal was replaced following the start of the study.
Dosage and Administration—An appropriate amount of herbal extract was dissolved in distilled water and given at 10:00-10:30 am by oral gavage. Suspensions were shaken gently before oral administration. Suspensions were prepared fresh every day. Control animals were given an appropriate volume of drinking water. Blood samples from rats receiving the carrier only were also analyzed.
Groups of six animals were treated orally with water (10 ml×2 times per day) for three days. 60 minutes after last administration of water, a solution of Aminophylline (10 ml/kg) was given to each animal in dose of 240 mg/kg (corresponding to 192 mg/kg of Theophylline) and blood samples were taken 0.25, 0.5, 1.0, 2.0, 4.0, 6.0 and 8.0 hours after the theophylline administration. A separate group of animals was used for each time point.
It was administered orally in a volume of 10 ml/kg of body weight. Freshly prepared extract was administered two times daily for 3 consecutive days. Single dose—25 mg/kg, daily dose—50 mg/kg. 60 minutes after last administration, a water solution of Aminophylline (10 ml/kg) was given to each animal in dose of 240 mg/kg (corresponding to 192 mg/kg of Theophylline) and blood samples were taken 0.25, 0.5, 1.0, 2.0, 4.0, 6.0 and 8.0 hours after the theophylline administration. A separate group of animals was used for each time point.
One tablet of Jarsin 300 was suspended in 10 ml of water and administered two times daily for 3 consecutive days. 60 minutes after last administration, water solution of Aminophylline (10 ml/kg) was given to each animal in dose of 240 mg/kg (corresponding to 192 mg/kg of Theophylline) and blood samples were taken 0.25, 0.5, 1.0, 2.0, 4.0, 6.0 and 8.0 hours after the theophylline administration. A separate group of animals was used for each time point.
Sampling of blood and sample preparation—Animals were sacrificed by laboratory guillotine. Following decapitation, blood was collected separately in centrifuge tubes and centrifuged at 3000 rpm for 10 min. Blood serum was separated and 50 μl was taken for theophylline assay. Conservation of the samples: the centrifuge tubes were closed with caps, frozen and stored in a freezer for 1-3 days prior to bio-assay.
Analytical Method: Capillary Electrophoresis—A modified capillary electrophoresis method was used, using an internal standard and as a mobile phase 50 mM borate buffer (pH 9.3) without SDS.
Pre-assay preparation—The Ramzan et al. method (52) of extraction of theophylline from serum was modified as follows. 50 μl of blood serum was added to 10 μl of an internal standard methanol solution (methyl-paraben, 60 μg/ml) in centrifuge tube to obtain final concentration of methyl paraben 10 μg/ml. The solution was vortexed vigorously for 10 sec and 1 ml of solvent system of isopropanol. and chloroform in a 5:95 ratio was added for extraction.

[1] = Group 1 (water control), rats, calculated by mean concentrations
[2] = Group 1 (water control), rats, mean of 6 series (column A)
[3] = Group 2 (CRE pretreatment), rats, calculated by mean concentrations
[4] = Group 2 (CRE pretreatment), rats, mean of 6 series (column A)
[5] = Group 3 (Jarsin 300 pretreatment), rats, calculated by mean concentrations
[6] = Group 3 (Jarsin 300 pretreatment), rats, mean of 6 series (column A)

## Cn1c(=O)c2[nH]cnc2n(C)c1=O [Theophylline, 1,3-dimethylxantin]
Group 1 (water control), aminophylline 240 mg/kg p.o., 15 min, single rat
  Concentration of Theophylline in Rat Serum: 181.11 µg/mL and 172.059 µg/mL and 225.306 µg/mL and 153.35 µg/mL and 146.67 µg/mL and 101.82 µg/mL
Group 1 (water control), aminophylline 240 mg/kg p.o., 30 min, single rat
  Concentration of Theophylline in Rat Serum: 135.41 µg/mL and 89.49 µg/mL and 50.10 µg/mL and 143.18 µg/mL and 337.56 µg/mL and 101.83 µg/mL
Group 1 (water control), aminophylline 240 mg/kg p.o., 60 min, single rat
  Concentration of Theophylline in Rat Serum: 138.11 µg/mL and 194.27 µg/mL and 255.06 µg/mL and 154.77 µg/mL and 231.79 µg/mL and 86.37 µg/mL
Group 1 (water control), aminophylline 240 mg/kg p.o., 120 min, single rat
  Concentration of Theophylline in Rat Serum: 57.30 µg/mL and 71.98 µg/mL and 61.23 µg/mL and 97.22 µg/mL and 56.61 µg/mL
Group 1 (water control), aminophylline 240 mg/kg p.o., 240 min, single rat
  Concentration of Theophylline in Rat Serum: 77.66 µg/mL and 94.86 µg/mL and 114.84 µg/mL and 61.03 µg/mL and 105.31 µg/mL and 169.15 µg/mL
Group 1 (water control), aminophylline 240 mg/kg p.o., 360 min, single rat
  Concentration of Theophylline in Rat Serum: 43.95 µg/mL and 42.46 µg/mL and 73.58 µg/mL and 77.92 µg/mL and 81.94 µg/mL and 31.38 µg/mL
Group 1 (water control), aminophylline 240 mg/kg p.o., 480 min, single rat
  Concentration of Theophylline in Rat Serum: 22.05 µg/mL and 69.25 µg/mL and 63.68 µg/mL and 44.98 µg/mL and 89.99 µg/mL and 16.09 µg/mL
[1]
  Clt of Theophylline: 0.4642 mL/min
  Kel of Theophylline: 0.149 h⁻¹
  Vd of Theophylline: 0.1871 L
[2]
  Clt of Theophylline, Mean: 0.4973 mL/min and 0.497 ± 0.055 mL/min
  Cmax of Theophylline, Mean: 195.2 ± 32.9 µg/mL
  Kel of Theophylline, Mean: 0.1638 h⁻¹ and 0.164 ± 0.02 h⁻¹
  MRT of Theophylline, Mean: 6.6239 ± 0.70 h
  Vd of Theophylline, Mean: 0.186 ± 0.015 L
  t1/2 of Theophylline, Mean: 4.504 ± 0.47 h
Group 1 (water control), rats, single series
  Clt of Theophylline: 0.441 mL/min and 0.3881 mL/min and 0.4945 mL/min and 0.3453 mL/min and 0.6439 mL/min and 0.671 mL/min
Group 2 (CRE pretreatment 3 days), aminophylline 240 mg/kg p.o., 15 min, single rat
  Concentration of Theophylline in Rat Serum: 192.873 µg/mL and 144.71 µg/mL and 164.57 µg/mL and 161.40 µg/mL and 98.74 µg/mL and 8.06 µg/mL
Group 2 (CRE pretreatment 3 days), aminophylline 240 mg/kg p.o., 30 min, single rat
  Concentration of Theophylline in Rat Serum: 190.52 µg/mL and 145.07 µg/mL and 223.28 µg/mL and 30.54 µg/mL and 154.41 µg/mL and 81.52 µg/mL
Group 2 (CRE pretreatment 3 days), aminophylline 240 mg/kg p.o., 60 min, single rat
  Concentration of Theophylline in Rat Serum: 158.01 µg/mL and 189.11 µg/mL and 120.37 µg/mL and 158.89 µg/mL and 119.72 µg/mL
Group 2 (CRE pretreatment 3 days), aminophylline 240 mg/kg p.o., 120 min, single rat
  Concentration of Theophylline in Rat Serum: 205.63 µg/mL and 140.04 µg/mL and 180.859 µg/mL and 96.55 µg/mL and 68.74 µg/mL and 91.30 µg/mL
Group 2 (CRE pretreatment 3 days), aminophylline 240 mg/kg p.o., 240 min, single rat
  Concentration of Theophylline in Rat Serum: 89.87 µg/mL and 65.03 µg/mL and 61.82 µg/mL and 134.64 µg/mL and 148.86 µg/mL and 115.97 µg/mL
Group 2 (CRE pretreatment 3 days), aminophylline 240 mg/kg p.o., 360 min, single rat
  Concentration of Theophylline in Rat Serum: 35.31 µg/mL and 7.61 µg/mL and 20.21 µg/mL and 233.16 µg/mL and 91.61 µg/mL and 38.01 µg/mL
Group 2 (CRE pretreatment 3 days), aminophylline 240 mg/kg p.o., 480 min, single rat
  Concentration of Theophylline in Rat Serum: 7.16 µg/mL and 34.98 µg/mL and 45.36 µg/mL and 56.71 µg/mL and 33.96 µg/mL and 12.51 µg/mL
[3]
  Clt of Theophylline: 0.502 mL/min
  Kel of Theophylline: 0.2042 h⁻¹
  Vd of Theophylline: 0.1475 L
[4]
  Clt of Theophylline, Mean: 0.5670 mL/min and 0.567 ± 0.067 mL/min
  Kel of Theophylline, Mean: 0.2706 h⁻¹ and 0.271 ± 0.035 h⁻¹
  Vd of Theophylline, Mean: 0.130 ± 0.014 L
Group 2 (CRE pretreatment), rats, single series
  Cmax of Theophylline: 223.3 µg/mL and 161.4 µg/mL and 158.9 µg/mL and 119.7 µg/mL and 192.9 µg/mL
Group 3 (Jarsin 300 pretreatment 3 days), aminophylline 240 mg/kg p.o., 15 min, single rat
  Concentration of Theophylline in Rat Serum: 4.86 µg/mL and 5.81 µg/mL
Group 3 (Jarsin 300 pretreatment 3 days), aminophylline 240 mg/kg p.o., 30 min, single rat
  Concentration of Theophylline in Rat Serum: 25.01 µg/mL and 34.73 µg/mL and 27.80 µg/mL
Group 3 (Jarsin 300 pretreatment 3 days), aminophylline 240 mg/kg p.o., 60 min, single rat
  Concentration of Theophylline in Rat Serum: 23.33 µg/mL and 30.97 µg/mL and 34.52 µg/mL
Group 3 (Jarsin 300 pretreatment 3 days), aminophylline 240 mg/kg p.o., 120 min, single rat
  Concentration of Theophylline in Rat Serum: 16.13 µg/mL and 44.11 µg/mL and 20.84 µg/mL
Group 3 (Jarsin 300 pretreatment 3 days), aminophylline 240 mg/kg p.o., 240 min, single rat
  Concentration of Theophylline in Rat Serum: 4.46 µg/mL and 16.77 µg/mL and 19.04 µg/mL
Group 3 (Jarsin 300 pretreatment 3 days), aminophylline 240 mg/kg p.o., 360 min, single rat
  Concentration of Theophylline in Rat Serum: 5.85 µg/mL and 11.58 µg/mL
Group 3 (Jarsin 300 pretreatment 3 days), aminophylline 240 mg/kg p.o., 480 min, single rat
  Concentration of Theophylline in Rat Serum: 2.34 µg/mL and 5.71 µg/mL
[5]
  Clt of Theophylline: 2.310 mL/min
  Kel of Theophylline: 0.2022 h⁻¹
  Vd of Theophylline: 0.6853 L
[6]
  Clt of Theophylline, Mean: 2.671 mL/min and 2.671 ± 0.637 mL/min
  Kel of Theophylline, Mean: 0.2204 h⁻¹ and 0.220 ± 0.033 h⁻¹
  Vd of Theophylline, Mean: 0.722 ± 0.091 L
male, Wistar, rat, in vivo, 240 mg/kg, Cmax of Theophylline, Group 1 (water control), rats, calculated by mean concentrations, 60 minutes
  Cmax: 177 µg/mL
male, Wistar, rat, in vivo, 240 mg/kg, Concentration of Theophylline in Rat Serum, Group 1 (water control), aminophylline 240 mg/kg p.o., 120 min, single rat
  concentration at 120 min: 96.3 µg/mL
male, Wistar, rat, in vivo, 240 mg/kg, Concentration of Theophylline in Rat Serum, Mean, Group 1 (water control), aminophylline 240 mg/kg p.o., 15 min, mean n=6
  concentration at 15 min: 163 µg/mL
male, Wistar, rat, in vivo, 240 mg/kg, Concentration of Theophylline in Rat Serum, Mean, Group 1 (water control), aminophylline 240 mg/kg p.o., 30 min, mean n=6
  concentration at 30 min: 143 µg/mL
male, Wistar, rat, in vivo, 240 mg/kg, Concentration of Theophylline in Rat Serum, Mean, Group 1 (water control), aminophylline 240 mg/kg p.o., 60 min, mean n=6
  concentration at 60 min: 177 µg/mL
male, Wistar, rat, in vivo, 240 mg/kg, Concentration of Theophylline in Rat Serum, Mean, Group 1 (water control), aminophylline 240 mg/kg p.o., 120 min, mean n=6
  concentration at 120 min: 73.4 µg/mL
male, Wistar, rat, in vivo, 240 mg/kg, Concentration of Theophylline in Rat Serum, Mean, Group 1 (water control), aminophylline 240 mg/kg p.o., 240 min, mean n=6
  concentration at 240 min: 104 µg/mL
male, Wistar, rat, in vivo, 240 mg/kg, Concentration of Theophylline in Rat Serum, Mean, Group 1 (water control), aminophylline 240 mg/kg p.o., 360 min, mean n=6
  concentration at 360 min: 58.5 µg/mL
male, Wistar, rat, in vivo, 240 mg/kg, Concentration of Theophylline in Rat Serum, Mean, Group 1 (water control), aminophylline 240 mg/kg p.o., 480 min, mean n=6
  concentration at 480 min: 51 µg/mL

From patent US6905706B2, “Medicinal herbal extract carpediol for treating depression” (Swedish Herbal Institute, priority 2002, dated 2005)
